Converted amounts (≈) assume the structure as drawn.
Key:
[1] = DPPH free radical scavenging (antioxidant activity, electron donating ability); conditions: 0.1 mM DPPH in methanol, 30 minutes at room temperature in the absence of light, absorbance at 517 nm
Description: Butylated hydroxyl anisole (BHA) was used as a control.
The mixture was allowed to react at room temperature for 30 minutes in the absence of light, and then the absorbance at 517 nm was measured using an UV-visible spectrophotometer (SCINCO, Korea). As blank, a reaction product between 0.5 ml of 0.1 mM DPPH and 1.5 ml of methanol was used. Electron donating ability (DEA) was calculated using the following equation: Electron donating ability (DEA) %={1−(S/B)}×100 wherein S is the absorbance at 517 nm of the reaction product between DPPH and the sample, and B is the absorbance at 517 nm of the reaction product between DPPH and methanol.

[2] = Stability of ramalin in water by HPLC, alone or with vitamin C; format: physicochemical; conditions: for stability (preserved amount by HPLC area) over maintenance time: FIG. 5
Description: At varying points of time, 10 μl of a sample was analyzed by semi-preparative reverse phase HPLC using an Agilent Eclipse XDB-C18 column (4.6×150 mm). The solvent system used consisted of 0.1% formic acid-containing water (A line) and 0.1% formic acid-containing methanol (B line). The analysis was carried out for a total of 30 minutes under the following conditions: from 0% to 5% for 15 min, from 5% to 90% for 5 min, from 90% to 0% for 5 min, and finally, from 0% to 5 min. The flow rate was 0.7 ml/min.

SMILES | IC50 values [1] [µg/mL] | stability (preserved amount by HPLC area) over maintenance time ([2]; ramalin alone, stored in water at 25° C. and 38° C.) | stability (preserved amount by HPLC area) over maintenance time ([2]; ramalin mixed with vitamin C (L-ascorbic acid) 1:1 (each 1000 ppm), stored in water) | stability at 38° C. ([2]; ramalin stored alone in water) | stability at 38° C. ([2]; ramalin stored together with vitamin C (1:1, each 1000 ppm) in water) | time within which more than half of ramalin disappears ([2]; room temperature, ramalin alone) [days]
COc1ccc(O)c(C(C)(C)C)c1 [Butylated hydroxyl anisole (BHA), Butylated hydroxyl anisole] | 1.43 (≈ 7.93 µM) |  |  |  |  | 
NC(CCC(=O)NNc1ccccc1O)C(=O)O (stereo not drawn) [Synthesized ramalin, ramalin] |  | decomposed rapidly | stability of the ramalin was maintained | completely disappear | somewhat stable | ≤ 4
